These are literature values, as cited in US20110184024A1, “Pharmaceutical Composition Containing Esomeprazole” (CTC BIO, INC., priority 2007, published 2011).

The conditions of the series: stored for two months at 25° C./60% RH.

In the case of `COc1ccc2nc([S@@+]([O-])Cc3ncc(C)c(OC)c3C)[nH]c2c1` [esomeprazole free base, (S)-5-methoxy-2-[(4-methoxy-3,5-dimethylpyridin-2-yl)methylsulfinyl]-3H-benzoimidazole], the “total impurities after storage” value is “about 1%”.
